Assay results from US20250127912A1, “COMPOSITIONS FOR DELIVERY OF POLYNUCLEOTIDES” (miRecule, Inc., priority 2021, published 2025).
No end group written: not given here. PEG1000 = N-terminal 1 kDa PEG spacer; PEG5000 = N-terminal 5 kDa PEG spacer; PEG2000 = PEG polymer of 2000 Da

Tests used:
[1] = Serum stability of miRNA mimic M30m3 alone or with cationic peptide/hybrid polymer in 5% human serum (TBE-urea gel); conditions: calculated based on first order decay comparing two time points; for Serum Stability at N/P1: M30m3 with polymer at N/P charge ratio 1, 37 C; for Serum Stability at N/P2: M30m3 with polymer at N/P charge ratio 2, 37 C
[2] = Biodistribution of IR750-NCD5 cetuximab conjugates in mice with orthotopic UM-SCC-1^luc tumors; conditions: 5 mg/kg IR750-NCD5 cetuximab conjugate, N/P of 1; 24 and 48 hours

| Serum Stability at N/P1 [1] [h] | Serum Stability at N/P2 [1] [h] | Compound | delivery to the tumor (IR-750 fluorescence) [2] | liver and kidney delivery (IR-750 fluorescence) [2] |
| --- | --- | --- | --- | --- |
| 34.91 | 18.1 | N=C(N)NCCC[C@H](NC(=O)[C@H](CCCNC(=N)N)NC(=O)[C@H](CCCNC(=N)N)NC(=O)[C@H](CCCNC(=N)N)NC(=O)[C@H](CCCNC(=N)N)NC(=O)[C@H](CCCNC(=N)N)NC(=O)[C@H](CCCNC(=N)N)NC(=O)[C@H](CCCNC(=N)N)NC(=O)[C@H](CCCNC(=N)N)NC(=O)[C@H](CCCNC(=N)N)NC(=O)[C@H](CCCNC(=N)N)NC(=O)[C@H](CCCNC(=N)N)NC(=O)[C@@H](N)CS)C(=O)N[C@@H](CS)C(=O)O [CPolyArg12C] |  |  |
| 19.21 | 16.9 | RTRRTRRTRRTRRTRRTR [PolyArg12Tinsert] |  |  |
| 26.74 | 22.23 | NC(N)=NCCC[C@H](NC(=O)[C@H](CCCN=C(N)N)NC(=O)[C@H](CCCN=C(N)N)NC(=O)[C@H](CCCN=C(N)N)NC(=O)[C@H](CCCN=C(N)N)NC(=O)[C@@H](N)CCCN=C(N)N)C(=O)O [PolyArg6, RRRRRR] |  |  |
|  |  | [PEG12]RRRRRRRRRRRR (N-terminal PEG12; MOD_RES 1 N-terminal PEG12 spacer) [PEG12PolyArg12] | markedly improves delivery to the tumor | reduces liver and kidney delivery |
| 7.179 | 12.26 | N=C(N)NCCC[C@H](N)C(=O)O [Arginine, reference compound] |  |  |
| 20.78 | 17.33 | N=C(N)NCCCCN [Agmatine, reference compound] |  |  |
| 25.6 | 18.06 | TTTTTTRRRRRRRRRRRR [T6PolyArg12] |  |  |
| 25.99 | 31.12 | N=C(N)NCCC[C@H](NC(=O)[C@H](CCCNC(=N)N)NC(=O)[C@H](CCCNC(=N)N)NC(=O)[C@H](CCCNC(=N)N)NC(=O)[C@H](CCCNC(=N)N)NC(=O)[C@H](CCCNC(=N)N)NC(=O)[C@H](CCCNC(=N)N)NC(=O)[C@H](CCCNC(=N)N)NC(=O)[C@H](CCCNC(=N)N)NC(=O)[C@H](CCCNC(=N)N)NC(=O)[C@H](CCCNC(=N)N)NC(=O)[C@@H](N)CCCNC(=N)N)C(=O)N[C@@H](CS)C(=O)O [PolyArg12C] |  |  |
| 19.96 | 19.2 | RRRRRRRRRRRR-[NHS Ester-BranchedPEG2kda] [PolyArg12bp2kDa] |  |  |
| 18.95 | 12.98 | NCCCNCCCCNCCCN [Spermine, reference compound] |  |  |

| Compound | Serum Stability at N/P1 [1] [h] | Serum Stability at N/P2 [1] [h] | delivery to the tumor (IR-750 fluorescence) [2] | liver and kidney delivery (IR-750 fluorescence) [2] |
| --- | --- | --- | --- | --- |
| [PEG2000]-RRRRRRRRRRRR (PEG2000-RRRRRRRRRRRR) [PEG2000DaPolyArg12] | 15 | 46.67 |  |  |
| [PEG12]RdRdRdRdRdRdRdRdRdRdRdRd (RRRRRRRRRRRR; N-terminal PEG12; D-arginines; MOD_RES 1 N-terminal PEG12 spacer; MOD_RES 1..12 D-Arginine) [PEG12PolyArg12{d}] | 57.63 | 90.35 |  |  |
| [PEG12]RRRRRR [PEG12PolyArg6] | 19.74 | 27.96 |  |  |
| [PEG12][PEG12]RRRRRRRRRRRR (N-terminal PEG24; MOD_RES 1 N-terminal PEG24 spacer) [PEP24PolyArg12] | 21.21 | 39.41 |  |  |
| M048 Alone: miR-30 mimic duplex M30m3 without polymer; guide SEQ ID NO: 38, passenger SEQ ID NO: 39 (guide UGUAAACAUCCUGCGACUGGAAG; sense UCCAGUCGAGGAUGUUUACA; modified_base 11 cm; modified_base 14 cm; modified_base 17 cm; modified_base 12 um; modified_base 18 um; modified_base 13 gm; modified_base 15 gm; modified_base 19 gm; modified_base 23 gm; modified_base 16 OTHER; 2'-O-methyladenosine; modified_base 22 OTHER; 2'-fluoroadenosine; misc_feature 21..22 phosphorothioate linkage; misc_feature 22..23 phosphorothioate linkage; misc_feature 1 amino C6 linker; modified_base 1 um; modified_base 2 cm; modified_base 3 cm; modified_base 19 cm; modified_base 18 OTHER; modified_base 20 OTHER) | 21.57 |  |  |  |
| [PEG5000]-RRRRRRRRRRRR (PEG5000-RRRRRRRRRRRR) [PEG5000DaPolyArg12] | 14.08 | 20.91 |  |  |
| [PEG12]RdRdRdRdRdRdRdRdRd [PEG12PolyArg9d] | 24.7 | 29.03 |  |  |
| [PEG1000]-RRRRRRRRRRRR (PEG1000-RRRRRRRRRRRR) [PEG1000DaPolyArg12] | 33.58 | 20.29 |  |  |
